Assay results from patent US11655225B2, “Antimycobacterial heterocyclic amides” (Crestone, Inc., priority 2018, dated 2023).
In brackets after ≈: the same amount, converted by molar mass.

These compounds were tested on M. abscessus (assay: MIC determination, CLSI M24-A). Conditions: Mycobacteroides abscessus, CLSI M24-A.
Type: cell-based

SMILES | MIC
CC12CC3CC(C)(C1)CC(C(=O)Nc1nc4ccc(F)cc4[nH]1)(C3)C2 [Example 120, N-(6-fluoro-1H-1,3-benzodiazol-2-yl)-3,5-dimethyladamantane-1-carboxamide] | 2 to 32 µg/mL (≈ 5.86 to 93.7 µM)
CC1CC(C(=O)Nc2nc3c(F)cccc3s2)CC(C)(C)C1 (stereo not drawn) [Example 121, N-(4-fluoro-1,3-benzothiazol-2-yl)-3,3,5-trimethylcyclohexane-1-carboxamide] | 2 to 32 µg/mL (≈ 6.24 to 99.9 µM)
CC12CC3CC(C)(C1)CC(C(=O)Nc1nc4c(F)cccc4s1)(C3)C2 [Example 122, N-(4-fluoro-1,3-benzothiazol-2-yl)-3,5-dimethyladamantane-1-carboxamide] | 2 to 32 µg/mL (≈ 5.58 to 89.3 µM)
CC12CC3CC(C)(C1)CC(C(=O)Nc1nc4ccc(F)cc4s1)(C3)C2 [Example 123, N-(6-fluoro-1,3-benzothiazol-2-yl)-3,5-dimethyladamantane-1-carboxamide] | 2 to 32 µg/mL (≈ 5.58 to 89.3 µM)
COc1ccc2nc(NC(=O)C34CC5CC(C)(CC(C)(C5)C3)C4)sc2c1 [Example 124, N-(6-methoxy-1,3-benzothiazol-2-yl)-3,5-dimethyladamantane-1-carboxamide] | 2 to 32 µg/mL (≈ 5.4 to 86.4 µM)
CC1CC(C(=O)Nc2nc3ccccc3s2)CC(C)(C)C1 (stereo not drawn) [Example 125, N-(1,3-benzothiazol-2-yl)-3,3,5-trimethylcyclohexane-1-carboxamide] | 2 to 32 µg/mL (≈ 6.61 to 106 µM)
O=C(Nc1nc2ccc(C(F)(F)F)cc2s1)C1CCCC(C(F)(F)F)C1 (stereo not drawn) [Example 126, 3-(trifluoromethyl)-N-[6-(trifluoromethyl)-1,3-benzothiazol-2-yl]cyclohexane-1-carboxamide] | 2 to 32 µg/mL (≈ 5.05 to 80.7 µM)
CC1CCCC(C(=O)Nc2nc3ccc(C(F)(F)F)cc3s2)C1 (stereo not drawn) [Example 127, 3-methyl-N-[6-(trifluoromethyl)-1,3-benzothiazol-2-yl]cyclohexane-1-carboxamide] | 2 to 32 µg/mL (≈ 5.84 to 93.5 µM)
CC1(C(=O)Nc2nc3ccc(C(F)(F)F)cc3s2)CCCC1 [Example 128, 1-methyl-N-[6-(trifluoromethyl)-1,3-benzothiazol-2-yl]cyclopentane-1-carboxamide] | 2 to 32 µg/mL (≈ 6.09 to 97.5 µM)
C[C@]1(C(=O)Nc2nc3ccc(OC(F)(F)F)cc3s2)C[C@@H]2C=C[C@H]1C2 [Example 129, (1R,2S,4R)-2-methyl-N-[6-(trifluoromethoxy)-1,3-benzothiazol-2-yl]bicyclo[2.2.1]hept-5-ene-2-carboxamide] | 2 to 32 µg/mL (≈ 5.43 to 86.9 µM)
O=C(Nc1nc2ccc(OC(F)(F)F)cc2s1)C1CCCC1 [Example 130, N-[6-(trifluoromethoxy)-1,3-benzothiazol-2-yl]cyclopentanecarboxamide] | 2 to 32 µg/mL (≈ 6.05 to 96.9 µM)
O=C(Nc1nc2ccccc2o1)C1C2CC3CC(C2)CC1C3 (stereo not drawn) [Example 131, N-(1,3-benzoxazol-2-yl)adamantane-2-carboxamide] | 2 to 32 µg/mL (≈ 6.75 to 108 µM)
CC12CCCC(C(=O)Nc3nc4ccc(C(F)(F)F)cc4o3)(CCC1)C2 [Example 132, 5-methyl-N-[6-(trifluoromethyl)-1,3-benzoxazol-2-yl]bicyclo[3.3.1]nonane-1-carboxamide] | 2 to 32 µg/mL (≈ 5.46 to 87.3 µM)
CC1(C(=O)Nc2nc3cc(F)cc(F)c3s2)CCCCC1 [Example 133, N-(5,7-difluoro-1,3-benzothiazol-2-yl)-1-methylcyclohexane-1-carboxamide] | 2 to 32 µg/mL (≈ 6.44 to 103 µM)
CC1(C(=O)Nc2nc3ccc(Br)cc3s2)CCCCC1 [Example 134, N-(6-bromo-1,3-benzothiazol-2-yl)-1-methylcyclohexane-1-carboxamide] | 2 to 32 µg/mL (≈ 5.66 to 90.6 µM)
CC1(C(=O)Nc2nc3ccc(Cl)cc3s2)CCCCC1 [Example 135, N-(6-chloro-1,3-benzothiazol-2-yl)-1-methylcyclohexane-1-carboxamide] | 2 to 32 µg/mL (≈ 6.48 to 104 µM)
CC1(C(=O)Nc2nc3ccc(OC(F)(F)F)cc3s2)CCCC1 [Example 136, 1-methyl-N-[6-(trifluoromethoxy)-1,3-benzothiazol-2-yl]cyclopentane-1-carboxamide] | 2 to 32 µg/mL (≈ 5.81 to 92.9 µM)

SMILES | MIC
CC1(C(=O)Nc2nc3ccc(OC(F)(F)F)cc3s2)CC2CC2C1 (stereo not drawn) [Example 137, 3-methyl-N-[6-(trifluoromethoxy)-1,3-benzothiazol-2-yl]bicyclo[3.1.0]hexane-3-carboxamide] | 2 to 32 µg/mL (≈ 5.61 to 89.8 µM)
CCOc1ccc2nc(NC(=O)C3CC4CCCC(C4)C3)sc2c1 (stereo not drawn) [Example 138, N-(6-ethoxy-1,3-benzothiazol-2-yl)bicyclo[3.3.1]nonane-3-carboxamide] | 2 to 32 µg/mL (≈ 5.81 to 92.9 µM)
O=C(Nc1nc2c(F)cc(F)cc2s1)C1CCCCCC1 [Example 139, N-(4,6-difluoro-1,3-benzothiazol-2-yl)cycloheptanecarboxamide] | 2 to 32 µg/mL (≈ 6.44 to 103 µM)
CC12CC3CC(C)(C1)CC(C(=O)Nc1nc4cc(Cl)ccc4o1)(C3)C2 [Example 140, N-(5-chloro-1,3-benzoxazol-2-yl)-3,5-dimethyladamantane-1-carboxamide] | 2 to 32 µg/mL (≈ 5.57 to 89.2 µM)
O=C(Nc1nc2c(F)c(F)c(F)cc2s1)C1CCCCCC1 [Example 141, N-(4,5,6-trifluoro-1,3-benzothiazol-2-yl)cycloheptanecarboxamide] | 2 to 32 µg/mL (≈ 6.09 to 97.5 µM)
CC1CC(C(=O)Nc2nc3cc(Cl)cc(Cl)c3o2)CC(C)(C)C1 (stereo not drawn) [Example 142, N-(5,7-dichloro-1,3-benzoxazol-2-yl)-3,3,5-trimethylcyclohexane-1-carboxamide] | 2 to 32 µg/mL (≈ 5.63 to 90.1 µM)
Cc1cc(C)c2oc(NC(=O)C3CC(C)CC(C)(C)C3)nc2c1 (stereo not drawn) [Example 143, N-(5,7-dimethyl-1,3-benzoxazol-2-yl)-3,3,5-trimethylcyclohexane-1-carboxamide] | 2 to 32 µg/mL (≈ 6.36 to 102 µM)
CC12CC3CC(C)(C1)CC(C(=O)Nc1nc4c(F)cccc4o1)(C3)C2 [Example 144, N-(4-fluoro-1,3-benzoxazol-2-yl)-3,5-dimethyladamantane-1-carboxamide] | 2 to 32 µg/mL (≈ 5.84 to 93.5 µM)
COc1ccc2nc(NC(=O)C34CC5CC(C)(CC(C)(C5)C3)C4)oc2c1 [Example 145, N-(6-methoxy-1,3-benzoxazol-2-yl)-3,5-dimethyladamantane-1-carboxamide] | 2 to 32 µg/mL (≈ 5.64 to 90.3 µM)
CC12CC3CC(C)(C1)CC(C(=O)Nc1nc4ccccc4[nH]1)(C3)C2 [Example 146, N-(1H-1,3-benzodiazol-2-yl)-3,5-dimethyladamantane-1-carboxamide] | 2 to 32 µg/mL (≈ 6.18 to 98.9 µM)
CC12CC3CC(C)(C1)CC(C(=O)Nc1nc4ccccc4o1)(C3)C2 [Example 147, N-(1,3-benzoxazol-2-yl)-3,5-dimethyladamantane-1-carboxamide] | 2 to 32 µg/mL (≈ 6.16 to 98.6 µM)
O=C(Nc1nc2ccc(C(F)(F)F)cc2s1)C1CCCC2(CC2)C1 (stereo not drawn) [Example 148, N-[6-(trifluoromethyl)-1,3-benzothiazol-2-yl]spiro[2.5]octane-5-carboxamide] | 2 to 32 µg/mL (≈ 5.64 to 90.3 µM)
CC1CCCC(NC(=O)Nc2nc3ccc(C(F)(F)F)cc3s2)C1 (stereo not drawn) [Example 149, 1-(3-methylcyclohexyl)-3-[6-(trifluoromethyl)-1,3-benzothiazol-2-yl]urea] | 2 to 32 µg/mL (≈ 5.6 to 89.5 µM)
CC12CC3CC(C)(C1)CC(C(=O)Nc1nc4ccc(C(F)(F)F)cc4o1)(C3)C2 [Example 150, 3,5-dimethyl-N-[6-(trifluoromethyl)-1,3-benzoxazol-2-yl]adamantane-1-carboxamide] | 2 to 32 µg/mL (≈ 5.1 to 81.5 µM)
CC1CC(C(=O)Nc2nc3cc(Cl)c(Cl)cc3[nH]2)CC(C)(C)C1 (stereo not drawn) [Example 151, N-(5,6-dichloro-1H-1,3-benzodiazol-2-yl)-3,3,5-trimethylcyclohexane-1-carboxamide] | 2 to 32 µg/mL (≈ 5.65 to 90.3 µM)
CC1CCC(C(=O)Nc2nc3ccc(C(F)(F)F)cc3s2)C1 (stereo not drawn) [Example 152, 3-methyl-N-[6-(trifluoromethyl)-1,3-benzothiazol-2-yl]cyclopentane-1-carboxamide] | 2 to 32 µg/mL (≈ 6.09 to 97.5 µM)
